The values below are quoted from earlier work in US20090312439A1, “USE OF ROLL COMPACTED PYROGENICALLY PRODUCED SILICON DIOXIDE IN PHARMACEUTICAL COMPOSITIONS” (priority 2006, published 2009).

As for `C#C[C@]1(O)CC[C@H]2[C@@H]3CCc4cc(O)ccc4[C@H]3CC[C@@]21C` [ethinyl oestradiol], the saturation equilibrium value (pure active constituent in water, reached only after shaking over several days) is listed as 1.1 mg/100 ml. Further, the “release of active constituent on contact with water” value (sorbate of 5.2 mg on 100 mg pyrogenic silicic acid (AEROSIL 200)) is reported as “supersaturated solution is formed”.
